Target: T1, rhodopsin (Bos taurus, UniProt P02699)
T1 construct: Gift: Dr. Andreas von Usedom, Institute for Medical Physics and Biophysics, Humboldt University, Berlin
Assay: Assay for rhodopsin functionality (transducin dissociation on illumination, SPR, BIACORE X)
Assay type: biochemical
Conditions: 10 μM 9-cis-retinal, after extended illumination and over night incubation
Experimental: In order to judge if the rhodopsin has a native and functional conformation after immobilization and supplementation with lipids as described in steps A and B above, its signaling capacity was assayed. When rhodopsin is activated by light, it transmits its signal by activating transducin. Activated transducin dissociates from the membrane under consumption of GTP (Heyse, S., et al., Biochemistry (1998) 37:507-522).
Measurements of transducin dissociation by activated rhodopsin were performed in a BIACORE X instrument into which an optical fiber had been inserted for illumination of the flow cells. The instrument temperature was set to 20° C. All the operations were performed under safe red light. […]
This solution was injected at 5 μl/min over both the rhodopsin and the reference flow cells in the manual mode. Upon injection, transducin bound readily to both the rhodopsin-POPC surface and the POPC reference surface, but when the injection was finished it dissociated very rapidly from the surface into the mobile phase of running buffer. […] The activation of the receptor was recorded as a surface mass decrease caused by dissociation of the activated transducin from the membrane. […]

T1 sequence (P02699 whole entry): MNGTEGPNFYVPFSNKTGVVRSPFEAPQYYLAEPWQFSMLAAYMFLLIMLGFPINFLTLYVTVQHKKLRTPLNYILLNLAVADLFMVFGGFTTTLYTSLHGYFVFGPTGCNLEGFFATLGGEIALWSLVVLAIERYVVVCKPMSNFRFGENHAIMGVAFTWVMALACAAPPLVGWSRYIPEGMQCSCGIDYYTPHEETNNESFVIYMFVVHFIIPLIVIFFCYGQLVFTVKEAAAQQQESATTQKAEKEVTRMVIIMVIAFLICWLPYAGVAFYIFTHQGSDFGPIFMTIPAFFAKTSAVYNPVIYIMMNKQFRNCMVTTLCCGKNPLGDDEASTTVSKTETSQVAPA

`CC1=C(/C=C/C(C)=C\C=C\C(C)=C\C=O)C(C)(C)CCC1` [9-cis-retinal] was tested, and the “signalling capacity of exhausted reconstituted rhodopsin after ligand injection” value was “recovery of the signalling capacity”.

Reference: patent US20020182717A1, “Method of preparing supported lipid film membranes and use thereof” (Biacore AB, priority 2001, published 2002)
